Experimental data as given in US20250122225A1, “MASP-2 INHIBITORS AND METHODS OF USE” (Omeros Corporation, priority 2023, published 2025).
pKi: −log10 of the molar value. Structures can show the parent of a compound that is named as a salt.

What was measured:
MASP-2 (CCP1-CCP2-SP) = target: T1, MASP-2 (CCP1-CCP2-SP) (Homo sapiens, UniProt O00187); assay: Enzymatic assay for MASP-2 inhibitory activity (fluorogenic substrate); assay type: biochemical
T1 construct: 15 μL of Enzyme MASP-2 (CCP1-CCP2-SP) in Assay Buffer
T1 sequence (O00187 445-686 limits assumed): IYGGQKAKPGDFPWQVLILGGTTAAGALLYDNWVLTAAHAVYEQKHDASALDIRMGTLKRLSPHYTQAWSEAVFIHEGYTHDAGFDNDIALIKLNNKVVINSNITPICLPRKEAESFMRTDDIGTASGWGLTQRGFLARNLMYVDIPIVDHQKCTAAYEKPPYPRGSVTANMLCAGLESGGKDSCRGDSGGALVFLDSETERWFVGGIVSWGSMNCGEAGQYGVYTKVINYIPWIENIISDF
T1 sequence (O00187 287-444 partner limits assumed): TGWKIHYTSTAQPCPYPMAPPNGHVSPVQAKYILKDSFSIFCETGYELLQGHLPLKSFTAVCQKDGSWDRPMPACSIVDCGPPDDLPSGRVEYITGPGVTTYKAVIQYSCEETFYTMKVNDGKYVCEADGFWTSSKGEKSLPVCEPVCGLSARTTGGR
How it was run: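 MASP-2 (CCP1-CCP2-SP) cleaved a fluorogenic substrate based on the C2 cleavage site in 20 mM HEPES pH 7.4, 140 mM NaCl, 0.1% Tween 20 at room temperature. After 20 min the reaction was stopped with 0.1 M acetic acid and fluorescence read. % activity was normalized to DMSO-only and no-enzyme controls; IC50 taken as Ki.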

human α-thrombin = target: T2, human α-thrombin (Homo sapiens, UniProt P00734); assay: Enzymatic assay for thrombin (fluorogenic peptide substrate Boc-VPR-AMC); assay type: biochemical
T2 construct: enzyme (human α-thrombin (BioPharm® Lab.)) in assay buffer; purchased BioPharm® Lab
How it was run: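 Human α-thrombin was run with the fluorogenic substrate Boc-VPR-AMC in 20 mM Hepes pH 7.4, 140 mM NaCl, 0.1% Tween 20 at room temperature for 20 min, then stopped with 0.1 M acetic acid. % activity was normalized to DMSO and no-enzyme controls. Under linear conditions IC50 equalled Ki, except for tight-binding inhibitors.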

pKi (MASP-2 (CCP1-CCP2-SP)) | pKi (human α-thrombin) | Compound
> 6.30 | > 6.30 | CC[C@@H](Nc1ncc2n(c1=O)[C@H](C(=O)NCc1cc3c(s1)CNC3)CC2)c1ccc(C)cc1 [Compound 266, (S)-N-((5,6-dihydro-4H-thieno[2,3-c]pyrrol-2-yl)methyl)-4-oxo-3-(((R)-1-(p-tolyl)propyl)amino)-4,6,7,8-tetrahydropyrrolo[1,2-a]pyrazine-6-carboxamide trifluoroacetate]
> 6.30 | 5.60 to 6.30 | Cc1ccc(CNc2ncc3n(c2=O)[C@H](C(=O)NCc2cc4cnccc4[nH]2)CC3)cc1C [Compound 44, (S)-N-((1H-pyrrolo[3,2-c]pyridin-2-yl)methyl)-3-((3,4-dimethylbenzyl)amino)-4-oxo-4,6,7,8-tetrahydropyrrolo[1,2-a]pyrazine-6-carboxamide]
> 6.30 | > 6.30 | Cc1nc(N)ccc1CNC(=O)[C@@H]1CCc2cnc(NCc3nn(C)c4ccccc34)c(=O)n21 [Compound 170, (S)-N-((6-amino-2-methylpyridin-3-yl)methyl)-3-(((1-methyl-1H-indazol-3-yl)methyl)amino)-4-oxo-4,6,7,8-tetrahydropyrrolo[1,2-a]pyrazine-6-carboxamide trifluoroacetate]
5.60 to 6.30 | > 6.30 | O=C(NCc1cc(Cl)ccc1-n1cnnn1)[C@@H]1CCc2c(Cl)nc(NCc3ccccc3)c(=O)n21 [Compound 107, (S)-3-(benzylamino)-1-chloro-N-(5-chloro-2-(1H-tetrazol-1-yl)benzyl)-4-oxo-4,6,7,8-tetrahydropyrrolo[1,2-a]pyrazine-6-carboxamide]
> 6.30 | 4.60 to 5.00 | Cc1cccc([C@@H](C)Nc2ncc3n(c2=O)[C@H](C(=O)NCc2cc4cnccc4[nH]2)CC3)c1 [Compound 73, (S)-N-((1H-pyrrolo[3,2-c]pyridin-2-yl)methyl)-4-oxo-3-(((R)-1-(m-tolyl)ethyl)amino)-4,6,7,8-tetrahydropyrrolo[1,2-a]pyrazine-6-carboxamide]
> 6.30 | 5.00 to 5.60 | O=C(NCc1cc2c(s1)CNC2)[C@@H]1CCc2c(Cl)nc(NCc3cccc(C(F)F)c3)c(=O)n21 [Compound 34, (S)-1-chloro-3-((3-(difluoromethyl)benzyl)amino)-N-((5,6-dihydro-4H-thieno[2,3-c]pyrrol-2-yl)methyl)-4-oxo-4,6,7,8-tetrahydropyrrolo[1,2-a]pyrazine-6-carboxamide]
> 6.30 | 5.00 to 5.60 | C[C@H]1C[C@@H](C(=O)NCc2cc3cnccc3[nH]2)n2c1cnc(NCc1ccccc1)c2=O [Compound 152, (6S,8S)-N-((1H-pyrrolo[3,2-c]pyridin-2-yl)methyl)-3-(benzylamino)-8-methyl-4-oxo-4,6,7,8-tetrahydropyrrolo[1,2-a]pyrazine-6-carboxamide]
> 6.30 | 5.00 to 5.60 | COc1cc(C)cc(CNc2nc(Cl)c3n(c2=O)[C@H](C(=O)NCc2cc4cnccc4[nH]2)CC3)c1 [Compound 7, (S)-N-((1H-pyrrolo[3,2-c]pyridin-2-yl)methyl)-1-chloro-3-((3-methoxy-5-methylbenzyl)amino)-4-oxo-4,6,7,8-tetrahydropyrrolo[1,2-a]pyrazine-6-carboxamide]
> 6.30 | > 6.30 | Cc1ccccc1[C@@H](C)Nc1ncc2n(c1=O)[C@H](C(=O)NCc1cc3cnccc3[nH]1)CC2 [Compound 81, (S)-N-((1H-pyrrolo[3,2-c]pyridin-2-yl)methyl)-4-oxo-3-(((R)-1-(0-tolyl)ethyl)amino)-4,6,7,8-tetrahydropyrrolo[1,2-a]pyrazine-6-carboxamide]
> 6.30 | > 6.30 | Cc1cc(C)cc(CNc2ncc3n(c2=O)[C@H](C(=O)NC(C)c2cc(Cl)ccc2-n2cnnn2)CC3)c1 (mixture of isomers) [Compound 283, (S)—N—((R/S)-1-(5-chloro-2-(1H-tetrazol-1-yl)phenyl)ethyl)-3-((3,5-dimethylbenzyl)amino)-4-oxo-4,6,7,8-tetrahydropyrrolo[1,2-a]pyrazine-6-carboxamide]
> 6.30 | 4.60 to 5.00 | Cc1cc(F)cc(CNc2nc(C3CCCCC3)c3n(c2=O)[C@H](C(=O)NCc2ccc(N)nc2C)CC3)c1 [Compound 176, (S)—N-((6-amino-2-methylpyridin-3-yl)methyl)-1-cyclohexyl-3-((3-fluoro-5-methylbenzyl)amino)-4-oxo-4,6,7,8-tetrahydropyrrolo[1,2-a]pyrazine-6-carboxamide DI-trifluoroacetate]
> 6.30 | > 6.30 | COc1cc(C)cc(CNc2ncc3n(c2=O)[C@H](C(=O)NCc2cc4c(s2)CNC4)CC3)c1 [Compound 91, (S)-N-((5,6-dihydro-4H-thieno[2,3-c]pyrrol-2-yl)methyl)-3-((3-methoxy-5-methylbenzyl)amino)-4-oxo-4,6,7,8-tetrahydropyrrolo[1,2-a]pyrazine-6-carboxamide]
> 6.30 | 5.60 to 6.30 | Cc1cc(C)cc(CNc2ncc3n(c2=O)[C@H](C(=O)NCc2cc4cnccc4[nH]2)CC3)c1 [Compound 97, (S)—N-((1H-pyrrolo[3,2-c]pyridin-2-yl)methyl)-3-((3,5-dimethylbenzyl)amino)-4-oxo-4,6,7,8-tetrahydropyrrolo[1,2-a]pyrazine-6-carboxamide trifluoroacetate]
> 6.30 | 4.60 to 5.00 | O=C(NCc1cc2cnccc2[nH]1)[C@@H]1CCc2c(Cl)nc(NCc3cccc(C(F)F)c3)c(=O)n21 [Compound 17, (S)-N-((1H-pyrrolo[3,2-c]pyridin-2-yl)methyl)-1-chloro-3-((3-(difluoromethyl)benzyl)amino)-4-oxo-4,6,7,8-tetrahydropyrrolo[1,2-a]pyrazine-6-carboxamide]
> 6.30 | < 4.60 | C[C@@H](NC(=O)[C@@H]1CCc2cnc(NCc3cccc(-c4ccccc4)c3)c(=O)n21)c1ccc(N)nc1 [Compound 201, (S)-3-(([1,1′-biphenyl]-3-ylmethyl)amino)-N-((R)-1-(6-aminopyridin-3-yl)ethyl)-4-oxo-4,6,7,8-tetrahydropyrrolo[1,2-a]pyrazine-6-carboxamide]
> 6.30 | 5.00 to 5.60 | Cc1cc(C)cc(CNc2ncc3n(c2=O)[C@H](C(=O)N[C@H](C)c2ccc(N)nc2)CC3)c1 [Compound 198, (S)-N-((R)-1-(6-aminopyridin-3-yl)ethyl)-3-((3,5-dimethylbenzyl)amino)-4-oxo-4,6,7,8-tetrahydropyrrolo[1,2-a]pyrazine-6-carboxamide trifluoroacetate]
> 6.30 | 4.60 to 5.00 | O=C(NCc1cc2cnccc2[nH]1)[C@@H]1CCc2c(Cl)nc(NCc3ccccc3)c(=O)n21 [Compound 105, (S)—N-((1H-pyrrolo[3,2-c]pyridin-2-yl)methyl)-3-(benzylamino)-1-chloro-4-oxo-4,6,7,8-tetrahydropyrrolo[1,2-a]pyrazine-6-carboxamide]
> 6.30 | > 6.30 | O=C(NCc1cc2c(s1)CNC2)[C@@H]1CCc2cnc(NCC3(c4ccccc4)CCC3)c(=O)n21 [Compound 271, (S)-N-((5,6-dihydro-4H-thieno[2,3-c]pyrrol-2-yl)methyl)-4-oxo-3-(((1-phenylcyclobutyl)methyl)amino)-4,6,7,8-tetrahydropyrrolo[1,2-a]pyrazine-6-carboxamide trifluoroacetate]
> 6.30 | > 6.30 | Cc1cc(C)cc(CNc2ncc3n(c2=O)[C@H](C(=O)NCc2ccc(N)nc2C)CC32CC2)c1 [Compound 122, (S)—N-((6-amino-2-methylpyridin-3-yl)methyl)-3′-((3,5-dimethylbenzyl)amino)-4′-oxo-6′,7′-dihydro-4′H-spiro[cyclopropane-1,8′-pyrrolo[1,2-a]pyrazine]-6′-carboxamide trifluoroacetate]
> 6.30 | 5.60 to 6.30 | O=C(NCc1cc2cnccc2[nH]1)[C@@H]1CCc2cnc(NCc3cc(F)cc(F)c3)c(=O)n21 [Compound 54, (S)-N-((1H-pyrrolo[3,2-c]pyridin-2-yl)methyl)-3-((3,5-difluorobenzyl)amino)-4-oxo-4,6,7,8-tetrahydropyrrolo[1,2-a]pyrazine-6-carboxamide]
> 6.30 | 5.60 to 6.30 | Cc1ccc(F)cc1CNc1ncc2n(c1=O)[C@H](C(=O)NCc1cc3cnccc3[nH]1)CC2 [Compound 63, (S)-N-((1H-pyrrolo[3,2-c]pyridin-2-yl)methyl)-3-((5-fluoro-2-methylbenzyl)amino)-4-oxo-4,6,7,8-tetrahydropyrrolo[1,2-a]pyrazine-6-carboxamide]
> 6.30 | > 6.30 | Cc1cc(C)cc([C@@H](CO)Nc2ncc3n(c2=O)[C@H](C(=O)NCc2ccc(N)nc2C)CC3)c1 [Compound 76, (S)-N-((6-amino-2-methylpyridin-3-yl)methyl)-3-(((S)-1-(3,5-dimethylphenyl)-2-hydroxyethyl)amino)-4-oxo-4,6,7,8-tetrahydropyrrolo[1,2-a]pyrazine-6-carboxamide]
5.60 to 6.30 | 4.60 to 5.00 | O=C(NCc1cc2cnccc2[nH]1)[C@@H]1CCc2cnc(N3CC(c4ccccc4)C3)c(=O)n21 [Compound 84, (S)-N-((1H-pyrrolo[3,2-c]pyridin-2-yl)methyl)-4-oxo-3-(3-phenylazetidin-1-yl)-4,6,7,8-tetrahydropyrrolo[1,2-a]pyrazine-6-carboxamide]
> 6.30 | 5.60 to 6.30 | CC[C@H]1C[C@@H](C(=O)NCc2ccc(N)nc2C)n2c1c(Cl)nc(NCc1ccccc1)c2=O [Compound 134, (6S,8S)-N-((6-amino-2-methylpyridin-3-yl)methyl)-3-(benzylamino)-1-chloro-8-ethyl-4-oxo-4,6,7,8-tetrahydropyrrolo[1,2-a]pyrazine-6-carboxamide]
